This passage reports inhibition results from US20130331261A1 (priority 2010, published 2013).

Holding throughout (format): cell-based
One experiment concerns Fusarium proliferatum. Nature of the experiment: microbe, parasite or virus in culture. The settings on record: 120 h.
The test system of experiment [1] is DON/Acetyl-DON production by Fusarium graminearum. Briefly: microbe, parasite or virus in culture. The following applies: 168 h, read-out: % Inhibition of DON/AcDON at 50 μM.
The test system of experiment [2] is Fumonisin FB1 production by Fusarium proliferatum. Briefly: Inhibition of fumonisin FB1 production by Fusarium proliferatum in fumonisin-inducing liquid media (HPLC-MS/MS). The settings on record: 120 h, 5 days at 20° C., vs control without compound.
A further experiment concerns Aspergillus parasiticus. Nature of the experiment: microbe, parasite or virus in culture. The settings on record: 168 h, read-out: % Inhibition of fungal growth at 50 μM.
Experiment [3] has as its system Production of Aflatoxins by Aspergillus parasiticus. Briefly: microbe, parasite or virus in culture. The following applies: 168 h, read-out: % Inhibition of Aflatoxin at 50 μM.
For another experiment, the system named is Fusarium graminearum. Briefly: microbe, parasite or virus in culture. The settings on record: 72 h, read-out: % Inhibition of fungal growth at 50 μM.

The structures appear in SMILES notation.

On to `COC(c1ccc(Cl)cc1Cl)C(C)NC(=O)c1cn(C)nc1C(F)F` (stereo not drawn) [Example 1], for which the inhibition at 50 µM amounted to 67% with Fusarium proliferatum; 100% in experiment [1]; 100% in experiment [2]; 100% with Aspergillus parasiticus; 100% in experiment [3]; 54% in the experiment with Fusarium graminearum.
In the case of `COC(c1ccc(Cl)cc1Cl)C(C)NC(=O)c1c(C)nn(C)c1F` (stereo not drawn) [Example 2], the inhibition at 50 µM in the experiment on Fusarium proliferatum is 77%; in experiment [1], 100%; in experiment [2], 100%; with Aspergillus parasiticus, 100%; in experiment [3], 100%; in the experiment on Fusarium graminearum, 58%.
Turning to `COC(c1ccc(Cl)cc1Cl)C(C)NC(=O)c1c(C(F)F)nn(C)c1F` (stereo not drawn) [Example 3], the inhibition at 50 µM in the experiment on Fusarium proliferatum amounted to 86%; in experiment [1] it was 100%; in experiment [2] it was 100%; in the experiment with Aspergillus parasiticus, 100%; in experiment [3], 100%; in the experiment on Fusarium graminearum, 41%.
